# Results from US20120101153A1, “ROCAGLAOL DERIVATIVES AS CARDIOPROTECTANT AGENTS AND AS ANTINEOPLASTIC AGENTS” (Universite De Strasbourg, priority 2008, published 2012).
# Like-named read-outs stand apart in the source and are kept apart here.
# Key:
# [1] = tested on: HL60 (promyeocytic leukaemia); test: MTS assay, inhibition of cell proliferation, HL60
# Experimental: (§1) The human cell lines HL60 (promyeocytic leukaemia), MDA435 (breast ductal carcinoma; ATCC reference HBT129) and MDA231 (breast adenocarcinoma; ATCC reference HBT26) were obtained from ATCC. […] SK-OV3 cells (or OV3, ATCC reference HTB77) were kindly provided by NCI (Frederick, Md.).
# (§2) The cell lines HCT116, HCT15, MCF7, MDA435, MDA231, PC3, OV3, HL60R and HL60 were grown in RPMI medium, in particular supplemented with 10% fetal calf serum, in the presence of penicillin, streptomycin and fungizone in 75 cm^2 flask under 5% CO2. […] The medium was changed every 2-3 days.
# (§3) Cells were plated in 96-well tissue culture plates in 200 μl medium and cultured during 24 h before to be treated with compounds dissolved in DMSO (compound concentrations at a range of 0.5 nM to 10 μM) using a Biomek 2000 or 3000 (Beckman). Controls received the same volume of DMSO (1% final volume). After a 72 h exposure, MTS reagent (Promega) was added and incubated for 3 h at 37° C. The absorbance was then monitored at 490 nm and results were expressed as the value [1-(OD490 treated/OD490 control)×100] corresponding to the percentage of inhibition of cell proliferation.
# [2] = tested on: HCT116 (colon adenocarcinoma); test: MTS assay, inhibition of cell proliferation, HCT116; conditions: Homo sapiens, HCT-116, read-out: Cytotoxicity (IC50)
# Experimental: (§4) The human cell lines HCT116 (colon adenocarcinoma), PC3 (prostate adenocarcinoma) and HCT15 (colon adenocarcinoma) were obtained from ECACC (Wiltshire, UK).
# (§5) The cell lines HCT116, HCT15, MCF7, MDA435, MDA231, PC3, OV3, HL60R and HL60 were grown in RPMI medium, in particular supplemented with 10% fetal calf serum, in the presence of penicillin, streptomycin and fungizone in 75 cm^2 flask under 5% CO2.
# as §3
# [3] = tested on: HL60R (resistant HL60 cells); test: MTS assay, cytotoxicity, HL60R; conditions: Homo sapiens, read-out: Cytotoxicity (IC50)
# Experimental: as §5, §3
# SK-OV3 cells (OV3) = test: MTS assay, cytotoxicity, OV3; conditions: Homo sapiens, SK-OV-3, read-out: Cytotoxicity (IC50)
# Experimental: as §1, §2, §3
# [4] = tested on: PC3 (prostate adenocarcinoma); test: MTS assay, cytotoxicity, PC3; conditions: Homo sapiens, read-out: Cytotoxicity (IC50)
# Experimental: as §4, §5, §3
# [5] = tested on: MDA435 (breast ductal carcinoma); test: MTS assay, cytotoxicity, MDA435; conditions: Homo sapiens, MDA435, read-out: Cytotoxicity (IC50)
# Experimental: as §1, §2, §3
# [6] = tested on: MDA231 (breast adenocarcinoma); test: MTS assay, cytotoxicity, MDA231; conditions: Homo sapiens, MDA-MB-231, read-out: Cytotoxicity (IC50)
# Experimental: as §1, §2, §3
# [7] = tested on: KB (epidermoid carcinoma); test: MTS assay, inhibition of cell proliferation, KB; conditions: Homo sapiens, read-out: Cytotoxicity (IC50)
# Experimental: The human cell lines KB (epidermoid carcinoma) and HepG2 (hepatocarcinoma) were obtained from ECACC (Salisbury, UK) and grown in D-MEM medium supplemented with 10% fetal calf serum, in the presence of penicilline, streptomycine and fungizone in 75 cm^2 flask under 5% CO2.
# as §3
# H9c2 cardiomyocytes = conditions: 10 or 100 nM; apoptosis induced by doxorubicin in H9c2 cells
# Experimental: The medium was changed every 2-3 days.
# H9c2 cells were plated for 24 h in 100 mm Petri dishes at 0,7×10^4 cells/cm^2. Next, the cells were washed and cultured for 12 h in glucose-free medium (Gibco, DMEM w-L-glutamine, w/o D-glucose, sodium pyruvate) supplemented with only 1% fetal calf serum. […] Cells were washed, and subsequently FACS analyses were performed.
# Apoptosis was analysed by fluorescence-activated cell sorting analysis (FACS-Calibur, Becton-Dickinson Biosciences). 0,5×10^6 cells were harvested, washed with Annexin Binding Buffer (0,01 M HEPES, 0,14 M NaCl, 2,5 mM CaCl2) and labeled with annexin V (dilution 1:50) and propidium iodide (6,7 μg/ml). All assays were performed at least in triplicate, and the results were analyzed by BD Cell Quest Pro software (Becton-Dickinson Biosciences, Le Pont De Claix, France).
# [8] = Homo sapiens, HL-60, read-out: Cytotoxicity (IC50)
# [9] = read-out: Cytotoxicity (IC50), HL60, MTS, Table 2
Compound,"IC50 [1, 8] [nM]",IC50 [2] [nM],IC50 [3] [nM],IC50 (SK-OV3 cells (OV3)) [nM],IC50 [4] [nM],IC50 [5] [nM],IC50 [6] [nM],IC50 [7] [nM],Activity for cytotoxicity and cardioprotection (FIG. 13) (H9c2 cardiomyocytes),"IC50 [1, 9] [nM]"
"COC(=O)[C@H]1[C@@H](O)[C@@]2(O)c3ccc(OC)cc3O[C@@]2(c2ccc(Br)cc2)[C@@H]1c1ccccc1 (racemic) [FL5, Methyl 3a-(4-bromophenyl)-1,8b-dihydroxy-8-methoxy-1-oxo-3-phenyl-2,3-3a,8b-tetrahydro-cyclopenta[b]benzofuran-2-carboxylate]",65,96,44,101,174,65,27,165,,
"COc1ccc2c(c1)O[C@@]1(c3ccc(Br)cc3)[C@H](c3ccccc3)C[C@@H](O)[C@@]21O (racemic) [FL6, 3a-(4-Bromophenyl)-8-methoxy-3-phenyl-1,2,3,3a-tetrahydro-cyclopenta[b]benzofuran-1,8b(1H)-diol]",115,108,67,251,224,205,48,255,no or weak such activity,
"COC(=O)[C@H]1[C@@H](O)[C@@]2(O)c3c(OC)cc(OC)cc3O[C@@]2(c2ccc(Br)cc2)[C@@H]1c1ccccc1 (racemic) [FL10, Methyl 3a-(4-bromophenyl)-1,8b-dihydroxy-6,8-dmethoxy-1-oxo-3-phenyl-2,3-3a,8b-tetrahydro-cyclopenta[b]benzofuran-2-Carboxylate]",14,18,14,21,29,15,8.7,24,,
COC(=O)[C@H]1[C@@H](O)[C@@]2(O)c3ccc(OCCCO)cc3O[C@@]2(c2ccc(OC)cc2)[C@@H]1c1ccccc1 (racemic) [FL11],1120,1420,1280,1460,2520,1110,1070,1710,no or weak such activity,
"COc1cc(OC)c2c(c1)O[C@@]1(c3ccc(Br)cc3)[C@H](c3ccccc3)[C@@H](C(=O)N(C)C)[C@@H](O)[C@@]21O (racemic) [FL12, 3a-(4-Bromophenyl)-1,8b-dihydroxy-6,8-dimethoxy-N,N-dimethyl-1-oxo-3-phenyl-2,3-3a,8b-tetrahydro-cyclopenta[b]benzofuran-2-carboxamide]",4,5.9,12,6.7,7.2,3.2,2.7,7,,
"CNC(=O)[C@H]1[C@@H](O)[C@@]2(O)c3c(OC)cc(OC)cc3O[C@@]2(c2ccc(Br)cc2)[C@@H]1c1ccccc1 (racemic) [FL13, 3a-(4-Bromophenyl)-1,8b-dihydroxy-6,8-dimethoxy-N-methyl-1-oxo-3-phenyl-2,3-3a,8b-tetrahydro-cyclopenta[b]benzofuran-2-carboxamide]",2,3.8,16,3.8,3.3,2.6,1.9,4,,
"COc1cc(OC)c2c(c1)O[C@@]1(c3ccc(Br)cc3)[C@H](c3ccccc3)[C@@H](C(N)=O)[C@@H](O)[C@@]21O (racemic) [FL14, 3a-(4-Bromophenyl)-1,8b-dihydroxy-6,8-dimethoxy-1-oxo-3-phenyl-2,3-3a,8b-tetrahydro-cyclopenta[b]benzofuran-2-carboxamide]",1,1.8,18,2.1,3.7,1.5,1,2,,
"COc1ccc([C@@]23Oc4cc(OC)cc(OC)c4[C@]2(O)[C@H](O)C[C@H]3c2cccc(F)c2)cc1 (racemic) [FL15, 3a-(4-methoxyphenyl)-6,8-dimethoxy-3-(3-fluorophenyl)-1,2,3,3a-tetrahydro-cyclopenta[b]benzofuran-1,8b(1H)-diol]",,,,,,,,60,,
"COC(=O)[C@H]1[C@@H](O)[C@@]2(O)c3c(OC)cc(OC)cc3O[C@@]2(c2ccc(OC)cc2)[C@@H]1c1cccc(F)c1 (racemic) [FL16, Methyl 3a-(4-methoxyphenyl)-1,8b-dihydroxy-6,8-dimethoxy-1-oxo-3-(3-fluorophenyl)-2,3-3a,8b-tetrahydro-cyclopenta[b]benzofuran-2-carboxylate]",,,,,,,,28,,
"COc1cc(OC)c2c(c1)O[C@@]1(c3ccc(Br)cc3)[C@H](c3cccc(F)c3)[C@@H](C(N)=O)[C@@H](O)[C@@]21O (racemic) [FL18, 3a-(4-Bromophenyl)-1,8b-dihydroxy-6,8-dimethoxy-1-oxo-3-(3-fluorophenyl)-2,3-3a,8b-tetrahydro-cyclopenta[b]benzofuran-2-carboxamide]",,,,,,,,14,,
"COc1cc(OC)c2c(c1)O[C@@]1(c3ccc(Br)cc3)[C@H](c3ccccc3)C[C@@H](OC=O)[C@@]21O (racemic) [FL19, 3a-(4-Bromophenyl)-6,8-dimethoxy-3-phenyl-1,2,3,3a-tetrahydro-cyclopenta[b]benzofuran-1,8b(1H)-diol 1-formate]",7,,,,,,,,,
"COc1cc(OC)c2c(c1)O[C@@]1(c3ccc(Br)cc3)[C@H](c3ccccc3)C[C@@H](OC(C)=O)[C@@]21O (racemic) [FL20, 3a-(4-Bromophenyl)-6,8-dimethoxy-3-phenyl-1,2,3,3a-tetrahydro-cyclopenta[b]benzofuran-1,8b(1H)-diol 1-acetate]",40,,,,,,,,,
"CCC(=O)O[C@@H]1C[C@@H](c2ccccc2)[C@]2(c3ccc(Br)cc3)Oc3cc(OC)cc(OC)c3[C@]12O (racemic) [FL21, 3a-(4-Bromophenyl)-6,8-dimethoxy-3-phenyl-1,2,3,3a-tetrahydro-cyclopenta[b]benzofuran-1,8b(1H)-diol 1-propionate]",50,,,,,,,,,
"COc1cc(OC)c2c(c1)OC1(c3ccc(Br)cc3)C(c3ccccc3)CC(NC=O)C21O (stereo not drawn) [FL22, 3a-(4-Bromophenyl)-6,8-dimethoxy-8b-hydroxy-3-phenyl-1,2,3,3a-tetrahydro-cyclopenta[b]benzofuran-1,8b(1H)-formamide]",,,,,,,,,,44
"COc1cc(OC)c2c(c1)OC1(c3ccc(Br)cc3)C(c3ccccc3)CC(NC=O)C21O (stereo not drawn) [FL23, 3a-(4-Bromophenyl)-6,8-dimethoxy-8b-hydroxy-3-phenyl-1,2,3,3a-tetrahydro-cyclopenta[b]benzofuran-1,8b(1H)-formamide]",,,,,,,,,,2
"COc1cc(OC)c2c(c1)OC1(c3ccc(Br)cc3)C(c3ccccc3)CC(NS(C)(=O)=O)C21O (stereo not drawn) [FL24, 3a-(4-Bromophenyl)-6,8-dimethoxy-8b-hydroxy-3-phenyl-1,2,3,3a-tetrahydro-cyclopenta[b]benzofuran-1,8b(1H)-methanesulfonamide]",,,,,,,,,,580
"COc1cc(OC)c2c(c1)OC1(c3ccc(Br)cc3)C(c3ccccc3)CC(NS(C)(=O)=O)C21O (stereo not drawn) [FL25, 3a-(4-Bromophenyl)-6,8-dimethoxy-8b-hydroxy-3-phenyl-1,2,3,3a-tetrahydro-cyclopenta[b]benzofuran-1,8b(1H)-methanesulfonamide]",,,,,,,,,,16
"CC(=O)O[C@@]12CO[C@@H]1C[C@H](O)[C@@]1(C)C(=O)[C@H](O)C3=C(C)[C@@H](OC(=O)[C@H](O)[C@@H](NC(=O)OC(C)(C)C)c4ccccc4)C[C@@](O)([C@@H](OC(=O)c4ccccc4)[C@H]21)C3(C)C [Taxotere, reference compound]",0.5,0.52,531,0.51,1.4,0.25,0.018,0.17,,
"CC[C@]1(O)C[C@@H]2CN(CCc3c([nH]c4ccccc34)[C@@](C(=O)OC)(c3cc4c(cc3OC)N(C)[C@H]3[C@@](O)(C(=O)OC)[C@H](OC(C)=O)[C@]5(CC)C=CCN6CC[C@]43[C@@H]65)C2)C1 [Vinblastin, vinblastine, reference compound]",1.11,1.42,> 100,2.7,5.5,1.24,0.63,0.8,,
